The record followed here is patent US10174013B2, “Benzimidazole derivatives as kinase inhibitors” (SELVITA S.A., priority 2012, dated 2019).

pIC50: −log10 of the molar value. Where a name gives a salt, the structure may show the parent alone. Read-outs that look alike come from different tables or passages of the source.

Assay [1] has as its system MV4-11 cells. The assay can be described thus: Growth inhibition, MTS assay, MV4-11. The assay is classed as cell-based, Human. The note with it: MTS cell viability, read-out: MV4-11 ED50; for pIC50: Homo sapiens, MV4-11, 72 h; for IC50: 72 hours. On the technique in general: Tetrazolium dyes change colour on reduction, which living cells bring about.
In assay [2] the test system is HEL92 cells. Nature of the assay: Growth inhibition, MTS assay, HEL92. The class given is cell-based, Human. The note with it: MTS cell viability, read-out: HEL92 ED50; for pIC50: Homo sapiens, 72 h; for IC50: 72 hours.
Assay [3] concerns HepG2 cells. Nature of the assay: Growth inhibition, MTS assay, HepG2. The class given is cell-based, Human. The note with it: MTS cell viability, read-out: HepG2 ED50; for pIC50: Homo sapiens, HepG2, 72 h; for IC50: 72 hours.
The subject of assay [4] is SW-480 cells. Nature of the assay: Growth inhibition, MTS assay, SW-480. The assay is classed as cell-based, Human. The note with it: 72 hours, MTS cell viability, read-out: SW-480 ED50; for pIC50: Homo sapiens, SW480. The source says: The following cell lines, were obtained and used in tests as outlined below: • Human myelomonocytic, biphenotypic leukemia MV4-11 cells (harboring a Flt3-ITD mutation); • Human Acute Myeloid Leukemia MOLM16 cells; • Human Acute Myeloid Leukemia MOLM13 cells (harboring a Flt3-ITD mutation); • Human Myeloid Leukemia KG-1 cells; • Human erythroleukemia HEL92 cells; • Human mantle cell lymphoma Jeko-1 cells; • Human hepatocellular carcinoma HepG2 cells; and • Human colon adenocarcinoma SW-480 cells.
The assays were carried out according to the following protocol, which is described as an example for the MV4-11 cells:
Ten thousand MV4-11 cells were inoculated into each well of a 96-well microplate (manufactured by Corning Corp.) using Iscove's MDM medium (culture medium) containing 10% fetal calf serum (FCS). The same day, a dimethyl sulfoxide (DMSO) solution of each test compound prepared in a concentration of 10 mmol/L was further diluted with DMSO to the desired concentrations (0.1, 0.5, 1, 2.5, 5 and 10 micromol/L), and the diluted solution was added to each well. The individual wells were further cultured in 5% carbon dioxide at 37° C. for 72 hours. […] Briefly, 10 μl MTS (3-(4,5-Dimethyl-2-thiazolyl)-5-(carboxymethoxyphenyl)-2-(4-sulfophenyl)-2H-tetrazolium was added to each well, and culturing was performed in 5% carbon dioxide at 37° C. for 2 hours. After this incubation and using a microplate spectrophotometer (Synergy 2 multi-mode microplate reader (BioTek)), the absorbance of each well was measured at 490 nm. The value for cells not incubated with a test compound was designated as 100%. By comparing these values with the absorbance difference obtained at the well in which each test compound was added, the cell viability (% viability) after treatment with the test compound was calculated.

The target of assay [5] is Pim-1 (Homo sapiens (Human), UniProt P11309). The assay can be described thus: ADP-Glo Kinase Assay, Pim-1. The note with it: 1 μM compound; for inhibition at 1 µM: read-out: Pim-1 % INH (1 μM). The class given is biochemical. Put shortly: (§1)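 Compounds were diluted in assay buffer to 1000 nM and incubated with kinase, substrate and ATP at apparent Km. Remaining ATP was depleted, ADP converted to ATP and detected by luciferase; percent inhibition came from normalized luminescence.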

Assay [6] addresses Pim-2 (Homo sapiens (Human), UniProt Q9P1W9). Nature of the assay: ADP-Glo Kinase Assay, Pim-2. The note with it: 1 μM compound; for inhibition at 1 µM: read-out: Pim-2 % INH (1 μM). The assay is classed as biochemical. The protocol: (§2) Compounds of the present invention were tested for their inhibitory activity against Pim-1, Pim-2, Pim-3, Flt3 wt, Flt3 ITD, CDK2/E and DYRK1. The testing of the compounds was carried out using the ADP-Glo™ Kinase Assay from Promega Corporation (Madison, Wis., USA).
(§3) The ADP-Glo™ Kinase Assay is a luminescent ADP detection assay to measure kinase activity by quantifying the amount of ADP produced during a kinase reaction. The kinase assay is performed in kinase assay buffer (5 mM MOPS, pH 7.5, 5 mM MgCl2, 0.4 mM EDTA, 1.5 mM DTT). Test samples initially dissolved in DMSO at 10 mM were diluted with the assay buffer to 1000 nM. A 30 μL volume/well of a mixture of substrates containing ATP (final ATP concentration in each kinase assay was equal to its apparent ATP Km).
(§4) The assay was performed in two steps: first, after the kinase reaction, an equal volume of ADP-Glo™ Reagent was added to terminate the kinase reaction and deplete the remaining ATP. Second, the Kinase Detection Reagent was added to simultaneously convert ADP to ATP and allowed the newly synthesized ATP to be measured using a luciferase/luciferin reaction. The luminescent signal generated was proportional to the ADP concentration produced and was correlated with kinase activity. A microplate spectrophotometer (Synergy 2 multi-mode microplate reader [BioTek]) was used for detecting the luminescence. The data was normalized and the percent of inhibition was obtained according to the following equation: […]

In assay [7] the target is Pim-3 (Homo sapiens (Human), UniProt Q86V86). Nature of the assay: ADP-Glo Kinase Assay, Pim-3. The note with it: 1 μM compound; for inhibition at 1 µM: read-out: Pim-3 % INH (1 μM). The assay is classed as biochemical. On the procedure: as §2, §3, §4
A general note: ADP-Glo turns the ADP formed in a reaction into a luminescent signal.

Assay [8] addresses FLT3wt (Homo sapiens (Human), UniProt P36888). Nature of the assay: ADP-Glo Kinase Assay, Flt3 wt. The class given is biochemical. The note with it: 1 μM compound; for inhibition at 1 µM: read-out: Flt3wt % INH (1 μM). An outline of the steps: as §1
The target of assay [9] is CDK2/E (Homo sapiens (Human), UniProt P24941). Nature of the assay: ADP-Glo Kinase Assay, CDK2/E. The assay is classed as biochemical. The note with it: 1 μM compound; for inhibition at 1 µM: read-out: CDK2/E % INH (1 μM). The protocol:
as §2, §3, §4

Assay [10] has as its target DYRK1 (Homo sapiens (Human), UniProt Q13627). Nature of the assay: ADP-Glo Kinase Assay, DYRK1. The class given is biochemical. The note with it: 1 μM compound; for inhibition at 1 µM: read-out: DYRK1A % INH (1 μM). An outline of the steps:
as §1

Sequence of Pim-1 (P11309 whole entry): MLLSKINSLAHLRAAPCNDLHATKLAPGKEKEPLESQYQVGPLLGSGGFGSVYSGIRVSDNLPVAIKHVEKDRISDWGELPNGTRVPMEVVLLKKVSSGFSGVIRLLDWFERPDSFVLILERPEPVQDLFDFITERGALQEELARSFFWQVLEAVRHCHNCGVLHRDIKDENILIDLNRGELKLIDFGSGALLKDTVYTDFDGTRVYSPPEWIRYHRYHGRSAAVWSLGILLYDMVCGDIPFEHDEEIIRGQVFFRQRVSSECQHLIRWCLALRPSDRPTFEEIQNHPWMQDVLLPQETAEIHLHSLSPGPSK
Sequence of Pim-2 (Q9P1W9 whole entry): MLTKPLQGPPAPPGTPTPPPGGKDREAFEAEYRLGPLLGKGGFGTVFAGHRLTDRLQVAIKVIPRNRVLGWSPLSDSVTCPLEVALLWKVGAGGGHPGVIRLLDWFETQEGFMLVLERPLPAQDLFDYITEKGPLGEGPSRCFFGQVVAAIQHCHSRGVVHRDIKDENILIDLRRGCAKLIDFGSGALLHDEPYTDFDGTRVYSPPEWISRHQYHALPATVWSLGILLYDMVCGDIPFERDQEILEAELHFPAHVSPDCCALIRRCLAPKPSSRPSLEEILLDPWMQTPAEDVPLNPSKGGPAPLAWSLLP
Sequence of FLT3wt (P36888 27-993): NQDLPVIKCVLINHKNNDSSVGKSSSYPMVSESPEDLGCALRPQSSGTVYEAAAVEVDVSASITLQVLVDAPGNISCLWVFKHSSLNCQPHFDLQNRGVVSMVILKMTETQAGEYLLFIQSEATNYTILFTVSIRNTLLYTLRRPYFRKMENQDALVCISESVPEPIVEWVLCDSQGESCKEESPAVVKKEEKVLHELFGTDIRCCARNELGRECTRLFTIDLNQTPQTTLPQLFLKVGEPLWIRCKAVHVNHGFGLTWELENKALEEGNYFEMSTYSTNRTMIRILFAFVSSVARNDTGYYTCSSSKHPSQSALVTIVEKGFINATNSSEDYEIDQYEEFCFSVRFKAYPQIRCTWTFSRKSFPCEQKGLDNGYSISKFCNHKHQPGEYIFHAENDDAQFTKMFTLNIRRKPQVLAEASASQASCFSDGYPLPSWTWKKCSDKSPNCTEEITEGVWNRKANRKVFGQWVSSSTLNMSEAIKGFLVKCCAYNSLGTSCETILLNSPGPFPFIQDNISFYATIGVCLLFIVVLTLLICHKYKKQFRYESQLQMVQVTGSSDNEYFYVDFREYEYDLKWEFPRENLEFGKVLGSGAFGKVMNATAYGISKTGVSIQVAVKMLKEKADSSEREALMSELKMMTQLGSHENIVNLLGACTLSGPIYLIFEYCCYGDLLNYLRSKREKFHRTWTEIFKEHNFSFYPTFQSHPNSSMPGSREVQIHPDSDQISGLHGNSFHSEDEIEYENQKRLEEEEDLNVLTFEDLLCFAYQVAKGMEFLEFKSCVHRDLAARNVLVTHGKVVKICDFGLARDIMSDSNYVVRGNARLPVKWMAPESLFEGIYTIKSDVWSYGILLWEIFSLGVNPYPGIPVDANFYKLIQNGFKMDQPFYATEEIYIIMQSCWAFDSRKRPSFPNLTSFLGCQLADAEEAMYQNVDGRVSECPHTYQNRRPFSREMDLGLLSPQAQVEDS

With `CCn1c(NCC2CCN(CCN(C)C)C2)nc2c([N+](=O)[O-])c(Br)c(Br)cc21` (stereo not shown) [Example 22O, 5,6-dibromo-N-({1-[2-(dimethylamino)ethyl]pyrrolidin-3-yl}methyl)-1-ethyl-4-nitro-1H-1,3-benzodiazol-2-amine], the pIC50 in assay [1] was 5.55; in assay [2] it was 5.60; in assay [3] it was 5.85; in [4] it was 5.85.
Consider `CCn1c(NCCCN)nc2c([N+](=O)[O-])c(Br)c(Br)cc21` [Example 1C], for which the inhibition at 1 µM in [5] was 85%; in assay [6], 28%; in [7] it was 70%; in assay [8], < 5%; in assay [9] it was < 5%. For the same compound, the pIC50 in assay [1] was 5.51; in assay [2], < 5.00; in assay [3], 5.39; in [4] it was 5.13.
As for `CCn1c(N2CCCN(C)CC2)nc2c([N+](=O)[O-])c(Br)c(Br)cc21` [Example 22M, 5,6-dibromo-1-ethyl-2-(4-methyl-1,4-diazepan-1-yl)-4-nitro-1H-1,3-benzodiazole], the inhibition at 1 µM was 74% in assay [5]; 18% in assay [6]; 29% in assay [7]; < 5% in [8]; < 5% in assay [9]. Further, the pIC50 in [1] is 5.43; in [2], 5.19; in [3] it was 5.30; in [4] it was 5.33.
With `C#CCn1c(NCCCN)nc2c([N+](=O)[O-])c(Br)c(Br)cc21` [Example 2G, N-(3-aminopropyl)-5,6-dibromo-4-nitro-1-(prop-2-yn-1-yl)-1H-1,3-benzodiazol-2-amine hydrochloride], the inhibition at 1 µM in [5] was 71%; in [7], 34%; in [8] it was 10%; in assay [9], < 5%; in assay [10], 25%. For the same compound, the pIC50 was 5.64 in [1], 5.22 in assay [2], 5.89 in assay [3] and 5.51 in [4].
Take `CCn1c(N2CCCC(N)C2)nc2c([N+](=O)[O-])c(Br)c(Br)cc21.Cl` (stereo not shown) [Example 1F]: the “Pim-1 % INH (1 μM)” value in assay [5] came out at 90%. Besides, the “Pim-2 % INH (1 μM)” value in [6] was 36%. Besides, in assay [7], the “Pim-3 % INH (1 μM)” value is 83%. The “Flt3wt % INH (1 μM)” value in assay [8] is reported as 6%. Further, the “CDK2/E % INH (1 μM)” value in [9] is <5%. In addition, the “DYRK1A % INH (1 μM)” value in [10] is on record as 20%. The IC50 in assay [1] is 2.3 µM; in assay [2], 5.0 µM; in [3], 3.3 µM; in assay [4] it was 3.3 µM.
`CCn1c(N2CCNC(C)(C)C2)nc2c([N+](=O)[O-])c(Br)c(Br)cc21` [Example 22W, 5,6-dibromo-2-(3,3-dimethylpiperazin-1-yl)-1-ethyl-4-nitro-1H-1,3-benzodiazole]: the inhibition at 1 µM is 80% in [5], 57% in assay [7], < 5% in [8] and < 5% in assay [9]. Moreover, the pIC50 was 5.77 in assay [1], 5.02 in assay [2], 5.82 in assay [3] and 5.31 in assay [4].
As to `C#CCn1c(N2CCNCC2)nc2c([N+](=O)[O-])c(Br)c(Br)cc21` [Example 2B, 5,6-dibromo-4-nitro-2-(piperazin-1-yl)-1-(prop-2-yn-1-yl)-1H-1,3-benzodiazole hydrochloride], the inhibition at 1 µM in assay [5] was 53%; in assay [8] it was < 5%; in assay [9], < 5%; in assay [10] it was 61%. The pIC50 was 5.51 in [1], 5.17 in [2], 5.85 in assay [3] and 5.26 in [4].
Take `O=[N+]([O-])c1c(Br)c(Br)cc2[nH]c(N3CCNCC3)nc12` [Example 1E]: the pIC50 is 5.48 in assay [1], 5.17 in assay [3] and 5.09 in assay [4].
On to `CCn1c(N2CCNC(C)C2)nc2c([N+](=O)[O-])c(Br)c(Br)cc21` (stereo not shown) [Example 22X, 5,6-dibromo-1-ethyl-2-(3-methylpiperazin-1-yl)-4-nitro-1H-1,3-benzodiazole], for which the inhibition at 1 µM in [5] is 74%; in assay [7], 56%; in assay [8] it was < 5%; in assay [9] it was < 5%; in assay [10], 39%. The pIC50 is 6.15 in assay [1], 5.06 in [2], 5.64 in assay [3] and 5.30 in [4].
As for `CCn1c(N2CCC(N)CC2)nc2c([N+](=O)[O-])c(Br)c(Br)cc21` [Example 1I], the results for the IC50 in assay [1], in assay [3] and in assay [4] were 5.1 µM, 4.3 µM and 5.6 µM, respectively.
Turning to `CCn1c(NCCCN2CCCC2)nc2c([N+](=O)[O-])c(Br)c(Br)cc21` [Example 22P, 5,6-dibromo-1-ethyl-4-nitro-N-[3-(pyrrolidin-1-yl)propyl]-1H-1,3-benzodiazol-2-amine], the pIC50 in assay [1] was 5.54; in [2], 5.23; in [3] it was 5.57; in assay [4], 5.60.
With `CC(C)n1c(NC2CCNC2)nc2c([N+](=O)[O-])c(Br)c(Br)cc21` (stereo not shown) [Example 1BA], the inhibition at 1 µM is > 95% in assay [5]; 51% in assay [6]; 82% in assay [7]; 15% in assay [8]; 6% in assay [9]; 52% in [10]. Also, the values for the pIC50 in [1], in assay [2] and in [3] were 5.96, 5.16 and 5.72, respectively.
In the case of `O=[N+]([O-])c1c(Br)c(Br)cc2c1nc(N[C@@H]1CCCNC1)n2CC1CC1` [Example 1CH], the “Pim-1 % INH (1 μM)” value in assay [5] is 82%. The “Pim-2 % INH (1 μM)” value in [6] is 10%. In addition, the “Pim-3 % INH (1 μM)” value in assay [7] worked out at 32%. The “Flt3wt % INH (1 μM)” value in assay [8] is on record as 17%. In assay [9], the “CDK2/E % INH (1 μM)” value was 9%. Moreover, the “DYRK1A % INH (1 μM)” value in assay [10] was found to be 14%. For the same compound, the IC50 in assay [1] is on record as 5.0 µM; in assay [2], 5.7 µM; in [3], 2.2 µM.
